Laboratory results taken from publication PMC10541198, “Specific quinone reductase 2 inhibitors reduce metabolic burden and reverse Alzheimer’s disease phenotype in mice” (The Journal of Clinical Investigation, 2023).
Several values for one entry are separate records, joined by “and”; a condition that tells them apart may be missing. Equal entries are not always repeated.

Legend:
[1] = tested on: HEK293 cells; assay: XTT cell viability assay; assay type: cell-based; details: in % (unit assumed)
Method: To establish direct target engagement and cell membrane permeability, a cellular thermal shift assay (CETSA) was carried out, using leading QR2is YB’s-537, 800, and 808. Following a 1 hour preincubation with 5 μM of the QR2is or vehicle, thermal aggregation curves (Taggs) of QR2 expressed in HEK293T were measured in increasing temperatures. All QR2is increased QR2 thermal stability compared with vehicle (Supplemental Figure 2A). Based on the Tagg curves we selected 73°C for isothermal dose-response fingerprint (IDTRF) experiments (Supplemental Figure 2B). The ITDRF allowed the relative quantification of the binding of each of the QR2is to QR2, measured as the EC50 (Figure 3A). […] We evaluated the safety of the QR2is using cell toxicity and viability assays. […] Cell viability was assessed by XTT assay in HEK239T cells, using a dose response, with 3- or 24-hour incubations of the leading QR2is. No sign of toxicity was seen (Figure 3C). Next, we wanted to assess if, similar to QR2 KO, QR2is can reduce cellular ROS in HCT116 cells and see whether any observable effect is occluded in QR2Δ cells. […] We then assessed WT HCT116 cells by immunoblot (Supplemental Figure 2, C and D), after being treated with YB-800 (2 μM) for 4 consecutive days.
H2DCFDA ROS assay was carried out according to established protocols, with some adjustment (Supplemental Methods) ([6]). Cell toxicity was measured via ATP depletion (CellTiter Glo, Promega) in THLE-2 cells (ATCC, CRL-2706), following 72 hours of exposure to the test compounds, and cell viability was assessed using XTT assay (Biological Industries) according to manufacturers protocols. CETSA was performed as previously described ([53]) with some modifications, using QR2 (Santa Cruz, sc-271665) and SOD1 (Santa Cruz, sc-17767) antibodies. SDS-PAGE and immunoblot imaging were carried out as previously described ([55]), using Tubulin (Sigma-Aldrich, SAB4500087), QR2 (Santa Cruz, sc-271665), NDUFA9 (AbCam, ab14713) and CD73 (Cell Signaling Technology, D7F9A) antibodies. […]
HEK293FT cells were cultured with penicillin- streptomycin antibiotics in Invitrogen DMEM (Thermo
Fisher Scientific) with 10% fetal bovine serum a nd L -glutamine, and grown to 80-90% confluence in 100
mm plates, while being passaged every 2–3 d. For the XTT assay (Biological Industries), cells were then
collected, centrifuged, and resuspended in fresh Minimum Essential Medium, and seeded at 50,000
cells/well in 96-well, poly- L-lysine-coated Nunc black, clear flat-bottomed plates (Thermo Fisher
Scientific). The next day, the cells were treated with increasing doses of QR2 inhibitors or vehicle f or 3 h,
and the XTT assay was then carried out as per the manufacturer’s instructions.
Cellular The rm a l Shift Assay (CETSA) […]
17767). Analysis of the results wer e done in accordance to Jafari et a l .( 63) us i ng GraphPad Pr i sm software.

[2] = biological target: T1, QR2 (Homo sapiens, UniProt P16083); assay: QR2 activity assay, BNAH fluorescence (standard/primary); assay type: biochemical; details: for IC50: Figure 2D, readout not stated
T1 construct: purchased Sigma-Aldrich
T1 sequence (P16083 1-231): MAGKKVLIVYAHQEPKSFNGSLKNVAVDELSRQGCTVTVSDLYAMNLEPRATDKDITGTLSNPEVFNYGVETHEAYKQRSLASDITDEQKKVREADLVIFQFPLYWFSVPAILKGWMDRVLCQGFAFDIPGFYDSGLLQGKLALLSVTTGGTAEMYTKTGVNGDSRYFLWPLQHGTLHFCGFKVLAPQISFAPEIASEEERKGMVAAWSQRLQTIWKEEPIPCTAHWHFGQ
Source text: A drug discovery campaign strategy was initiated to screen compounds for QR2-specific, cell-free inhibition and in vitro activity, followed by SAR optimization (Figure 2A) to achieve highly specific and potent QR2 inhibitor synthesis. In order to establish a varied and chemically amenable starting point, we developed a high-throughput QR2 assay (Supplemental Methods) that we screened against a library with approximately 200,000 compounds. […] Compounds that replicated the initial hit result were then assayed similarly against QR1 to evaluate compound specificity (Figure 2B). From the HTS, a chemically tractable and attractive series of compounds containing a sulfone flanked by an amine and a heterocycle were identified and selected for SAR development (Figure 2C, Supplemental Methods, Supplemental Table 1, and Supplemental Table 2). […]
High Throughput Screen (H TS)
The enzymatic activity of QR 2 (10 nM) was measur ed using menadione (both Sigm a -Aldrich) as subst r at e and dihydro- benzylnicotinamide (BNAH; Tocris) as co-substrate(62). The reaction was performed in 50 mM Tri s HCl, 150 mM NaCl 0.01%Tween- 20 pH=8.5 (Sigma-Aldrich) at r oom tem per atur e. Briefl y, 3 µL of menadione alone (200 µM) or a mixture of menadione and QR2 (200 µM of […]
menadione and 10 nM of QR2) were dispensed in 1536-well black Nunc plates (Thermo-Fisher) using aMultidrop™ Combi Reagent Dispenser (Thermo-Fisher) and pre-incubated with compounds for 10min. BNAH (200µM) was t hen added (3 µL) to the reaction using a BioNex Solutions BNX1536plate washer and the plates were incubated for another 10 min. Fluorescence intensity was followed in a PHERAstar FS multi-mode plate reader (BMG Labtech) us i ng an optic module with excitation at 360 nm and emission at 470 nm. The initial HTS includedapproximately 200,000 compounds at a single concentrationof 5 µM. The chemical libraries used were Selleck Chemicals Bioactives, the Drug-like set from Enamine, HitFinder collection from Maybridge, Spectrum Collection from Microsource, Lopa c from Sigma -Aldrich and the diversity set s from Chem Div and Che m Br idge .
Initial ‘‘hit’’ compounds were defined as causing >30% reduction of enzyme activity. Compounds suspected to be fluorescent were re -assayed in an absorbance assay at 350 nm using the same reaction but in a higher volume (100 µL), in a transparent plate (Greiner Bio- One). ‘‘Hit’’ compounds resulting from both the fluorescence and absorbance assay wer e t ested in a concentration- response, and IC50 values were de t er mi ne d. In parallel, the same concentration response methodologywas appliedin a selectivity assay where QR2 enzymewas replaced byQR1 […]
Chromatography System, with UV/Vis detector 2489, using XBridge® Prep C18 10 μm 10x250 mm […]
was monitored by Wat er s UPLC-MS system: Acquity UPLC® H class with PDA detector, and using […]

Row | Structure (SMILES) | cell viability, XTT (replicates) ([1]; 3h, inhibitor 2e-8 M) | cell viability, XTT (replicates) ([1]; 3h, inhibitor 2e-7 M) | cell viability, XTT (replicates) ([1]; 3h, inhibitor 2e-6 M) | cell viability, XTT (replicates) ([1]; 3h, inhibitor 2e-5 M) | cell viability, XTT (replicates) ([1]; 24h, inhibitor 2e-8 M) | cell viability, XTT (replicates) ([1]; 24h, inhibitor 2e-7 M) | cell viability, XTT (replicates) ([1]; 24h, inhibitor 2e-6 M) | cell viability, XTT (replicates) ([1]; 24h, inhibitor 2e-5 M) | IC50 [2] [nM] | binding affinity to QR2 than to QR1 [2] | specificity to QR2 compared with QR1 [2]
1 | Cc1ccc(-c2cn3cccc(C)c3n2)cc1S(=O)(=O)N1CCC(C)CC1 [YB-800] | 110.8 and 103.7 and 108.0 and 102.4 | 102.8 and 101.2 and 105.3 and 105.6 | 102.2 and 105.1 and 102.6 and 106.5 | 89.7 and 90.4 and 98.2 and 92.7 | 107.0 and 100.8 and 108.4 | 107.9 and 100.0 and 108.0 | 108.3 and 101.8 and 109.9 | 104.0 and 96.6 and 104.9 | 30 | – | –
2 | Cc1ccc(-c2cn3cccc(C)c3n2)cc1S(=O)(=O)N1CCNCC1 [YB-537] | 94.7 and 105.7 and 95.0 and 97.1 | 97.9 and 102.5 and 95.0 and 99.0 | 99.1 and 104.8 and 106.5 and 98.8 | 94.7 and 101.0 and 104.9 and 96.7 | 105.3 and 102.1 and 104.1 | 107.4 and 101.8 and 105.2 | 109.0 and 101.0 and 104.0 | 106.0 and 97.3 and 109.2 | 3 | more than 6,000 fold | more than 6,000 times
3 | Cc1ccc(-c2cn3cccc(C)c3n2)cc1S(=O)(=O)N1CCCC1 [YB-808] | 99.9 and 101.4 and 100.9 and 104.5 | 95.8 and 94.0 and 100.4 and 100.6 | 96.9 and 89.9 and 98.4 and 94.4 | 97.3 and 87.1 and 95.7 and 85.1 | 106.1 and 99.4 and 100.6 | 106.1 and 98.5 and 96.2 | 103.5 and 93.6 and 93.8 | 95.3 and 93.6 and 96.9 | 10 | – | –
